Experimental findings from US20100048521A1, “COMBINATION OF A GLUCO-KORTICOID AND BETA-CYCLODEXTRIN CONJUGATED VITAMIN A-DERIVATE COMPLEX” (priority 2006, published 2010) are described below.

SMILES strings stand for the structures.

The assay deals with skin (epidermis+dermis) of healthy female volunteers. Description: Comparative study of skin atrophy: skin thickness and density by ultrasound (Dermascan C) after topical treatment of the inner arm. The class given is in vivo, human. The text has this:
Comparative Study of Hydrocortisone and Hydrocortisone Combined with β-cyclodextrin Conjugated Retinyl Palmitate Complex with Respect to the Development of Skin Atrophy
The study was run according to the protocol described below and was approved by the local regional ethics committee before the study was initiated.
The study included 10 healthy female volunteers. The average age was 43.2 years. They received treatment with hydrocortisone cream 1% on the inner part of one arm (right or left) once daily for 4 weeks. […] On the opposite arm they were treated with hydrocortisone cream 1% and after 10 minutes Nourella Cream containing β-cyclodextrin conjugated retinyl palmitate complex was applied (Pharma Medico; Aarhus, Denmark). Treatments were randomized so that half of the participants treated the right arm with hydrocortisone and the left with the combination and vice versa.
The skin was inspected clinically in the beginning and at the end of the study and objective measurement of the skin thickness and density was done by ultrasound (Dermascan C).

Setting [1] is: after 4 weeks of once daily topical treatment, inner arm, ultrasound, ns.

As for `C[C@]12CCC(=O)C=C1CC[C@@H]1[C@@H]2[C@@H](O)C[C@@]2(C)[C@H]1CC[C@]2(O)C(=O)CO` [Hydrocortisone, hydrocortisone], for the setting “4 weeks once daily topical, change vs baseline, p=0.07 between arms”, the “Average reduction of skin thickness (epidermis+dermis)” value stood at 15%. Moreover, under setting [1], the “Skin density, After 4 weeks” value is listed as 1830.0 ns pixel and the “Skin thickness, After 4 weeks” value came out at 0.954 ns mm. Further, the “Development of low echogenic dark areas (dermis density)” value (after 4 weeks of treatment, ultrasound, p=0.08) is “Low echogenic dark areas develop”. The “Cross-section of the skin: thickness and density vs baseline (figure)” value (after treatment for 4 weeks, ultrasound picture) was “The skin gets thinner and the density decrease”. In addition, the “Skin density, Baseline” value (baseline, before treatment, inner arm, ultrasound) is listed as 1503.5 pixel. Besides, the “Skin thickness, Baseline” value (baseline, before treatment, inner arm, ultrasound, 10 healthy female volunteers) came to 1.122 mm. For the same compound, the Skin atrophy result (used for 4 weeks, FIG. 1 and FIG. 2) is on record as “significant skin atrophy”.
